In ChEMBL document CHEMBL5537139, “Promises of anionic calix[n]arenes in life science: State of the art in 2023” (Eur J Med Chem, 2024):

What was measured:
[1] = Inhibition of influenza A virus A/H3N2 neuraminidase
Caco-2 = assay: Anticancer activity against human Caco-2 cells assessed as inhibition of cell viability; assay type: functional, cell-based
HT-29 = assay: Anticancer activity against human HT-29 cells assessed as reduction in cell viability incubated for 24 hrs by MTT assay; assay type: functional, cell-based; conditions: HT-29, 24 h
bovine serum albumin = bovine serum albumin (Bos taurus, UniProt P02769); assay: Inhibition of bovine serum albumin at 1 uM by SPR analysis relative to control; conditions: cattle
[2] = Binding affinity to trimethyl-lysine (unknown origin) assessed as dissociation constant; design: species or system Homo sapiens
[3] = Binding affinity to Methyl-lysine (unknown origin) assessed as dissociation constant; design: species or system Homo sapiens

Chain of bovine serum albumin (P02769 whole entry): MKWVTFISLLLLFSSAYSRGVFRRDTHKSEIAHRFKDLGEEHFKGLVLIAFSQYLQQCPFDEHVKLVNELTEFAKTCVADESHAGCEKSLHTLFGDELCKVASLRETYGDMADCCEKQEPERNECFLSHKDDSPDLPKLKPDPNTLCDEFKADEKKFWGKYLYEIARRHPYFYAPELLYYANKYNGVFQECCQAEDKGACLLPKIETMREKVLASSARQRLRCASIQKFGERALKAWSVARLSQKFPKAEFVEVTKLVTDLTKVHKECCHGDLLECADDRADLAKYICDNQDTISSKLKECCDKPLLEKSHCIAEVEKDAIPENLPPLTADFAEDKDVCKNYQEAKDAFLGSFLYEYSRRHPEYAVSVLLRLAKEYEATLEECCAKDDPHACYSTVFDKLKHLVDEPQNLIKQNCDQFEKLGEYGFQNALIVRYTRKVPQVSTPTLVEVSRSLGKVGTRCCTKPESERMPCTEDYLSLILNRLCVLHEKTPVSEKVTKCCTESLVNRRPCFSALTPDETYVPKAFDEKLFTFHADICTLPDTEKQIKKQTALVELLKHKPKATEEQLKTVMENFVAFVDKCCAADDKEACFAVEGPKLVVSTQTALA

Question: For `O=S(=O)(O)c1cc2c(O)c(c1)Cc1cc(S(=O)(=O)O)cc(c1O)Cc1cc(S(=O)(=O)O)cc(c1O)Cc1cc(S(=O)(=O)O)cc(c1O)Cc1cc(S(=O)(=O)O)cc(c1O)Cc1cc(S(=O)(=O)O)cc(c1O)Cc1cc(S(=O)(=O)O)cc(c1O)Cc1cc(S(=O)(=O)O)cc(c1O)C2`, which IC50 [1] is on record?
Answer: 6.4 µM

Question: Which results are given for `CCCCCCOc1c2cc(P(=O)(O)O)cc1Cc1cc(P(=O)(O)O)cc(c1OCCCCCC)Cc1cc(P(=O)(O)O)cc(c1OCCCCCC)Cc1cc(P(=O)(O)O)cc(c1OCCCCCC)C2`?
Answer: IC50 (Caco-2): 3.88 µM; IC50 (HT-29): 8.79 µM

Question: For `COc1cccc2c1C(=O)c1c(O)c3c(c(O)c1C2=O)C[C@@](O)(C(=O)CO)C[C@@H]3O[C@H]1C[C@H](N)[C@H](O)[C@H](C)O1` [DOXORUBICIN], which inhibition at 1 µM (bovine serum albumin) is on record?
Answer: 87%

Question: With `O=S(=O)(O)c1cc2c(O)c(c1)Cc1cc(S(=O)(=O)O)cc(c1O)Cc1cc(S(=O)(=O)O)cc(c1O)Cc1cc(S(=O)(=O)O)cc(c1O)C2` as the compound, how does the Kd [2] read?
Answer: 27 µM

Question: And the Kd [3]?
Answer: 15.6 µM

Question: For `CC[C@@]1(O)C(=O)OCc2c1cc1n(c2=O)Cc2cc3ccccc3nc2-1` [CAMPTOTHECIN], which inhibition at 1 µM (bovine serum albumin) is on record?
Answer: 98%

Question: With `CO[C@@]12[C@H](COC(N)=O)C3=C(C(=O)C(C)=C(N)C3=O)N1C[C@@H]1N[C@@H]12` [MITOMYCIN] as the compound, how does the inhibition at 1 µM (bovine serum albumin) read?
Answer: 94%
